The values that follow come from PubChem BioAssay (NCI).

Test in all cases: DTP human tumour cell line panel, 48 h
In experiment [1] the test system is 786-0 renal.
The test system of experiment [2] is A549 NSCLC.
For experiment [3], the system named is KM12 colon.
Experiment [4] concerns MDA-MB-231 breast.
The test system of experiment [5] is MDA-MB-435.
Experiment [6] relates to OVCAR-4 ovarian.
Experiment [7] has as its system OVCAR-8 ovarian.
Experiment [8] concerns RXF 393 renal.
Experiment [9] concerns SK-MEL-5 melanoma.
Experiment [10] concerns TK-10 renal.
Experiment [11] has as its system UACC-62 melanoma.

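All cell lines were grown in 96-well plates and treated with compound for 48 hours. GI50: concentration for 50% inhibition of growth. TGI marks complete inhibition of growth.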

A word on the TGI: it is the concentration giving total growth inhibition. Lower therefore signals more potent growth arrest. On to `O=c1[nH]c2[nH]c(=S)[nH]c(=S)c2[nH]1`, for which the TGI in experiment [1], in [2], in experiment [3], in [4], in experiment [5] and in experiment [6] was above 100 µM throughout. For the same molecule, the total growth inhibition concentration (TGI) in experiment [7], in [8], in [9], in [10] and in experiment [11] was above 100 µM each time.
For `COc1ccc2nc3cc(Cl)ccc3c(NC(C)CCCN(CCCl)CCCl)c2c1` (configuration not stated), the TGI in experiment [1] was determined as 3.87 µM; in experiment [2] it was 7.04 µM; in [3], 4.6 µM; in experiment [6], 4.33 µM; in experiment [7], 4.32 µM; in [8], 4.9 µM. In addition, the TGI in experiment [9] was found to be 7.89 µM; in [10] it was 6.04 µM; in [11] it was 2.41 µM.
With `O=C1C(Cl)N(c2ccccc2Cl)C1c1c[nH]c2ccccc12` (configuration not stated), the TGI in experiment [2], in [3], in experiment [6], in experiment [7], in [8] and in experiment [9] was above 100 µM throughout. The total growth inhibition concentration (TGI) in experiment [10] and in [11] was above 100 µM throughout.
Regarding `CCN(CC)CCNc1ccc2ncn3c4ccc(O)cc4c(=O)c1c23`, the total growth inhibition concentration (TGI) in experiment [1] turned out to be 14.1 µM; in experiment [2] it was 7 µM; in experiment [3] it was 10.6 µM; in experiment [4] it was 14.1 µM; in [5], 18.4 µM; in [6], 9.81 µM. In addition, the TGI amounted to 9.55 µM in experiment [7]; 1.96 µM in experiment [8]; 10.4 µM in experiment [9]; 20.1 µM in experiment [10]; 11.8 µM in experiment [11].
`O=C(CSCC(=O)N/N=C/c1cccc(O)c1)N/N=C/c1cccc(O)c1`: the TGI in [1], in experiment [2], in experiment [3], in experiment [4], in experiment [5] and in experiment [6] was above 100 µM throughout. The TGI in experiment [7], in experiment [8], in [9], in experiment [10] and in [11] was above 100 µM throughout.
`O=C1c2ccccc2C(=O)c2[nH]cnc21`: the concentration for total growth inhibition (TGI) in experiment [1], in [2], in experiment [3], in experiment [6], in experiment [7] and in [8] was above 100 µM in each case. Besides, the TGI in experiment [9] was 34.2 µM; in experiment [10], above 100 µM; in experiment [11], 82.2 µM.
For `O=C1c2cc(O)c(O)cc2O[C@H](c2ccc(O)c(O)c2)[C@H]1O`, the TGI in [1], in experiment [2], in [3], in experiment [4], in [5] and in experiment [7] was above 100 µM each time. The concentration for total growth inhibition (TGI) in [9], in experiment [10] and in experiment [11] was above 100 µM each time.
By GI50 is commonly meant the concentration giving 50% growth inhibition. On to `O=C1c2cc3c(cc2-c2c1c1ccc(Cl)cc1c(=O)n2C[C@H](O)CO)OCO3`, for which the GI50 is 0.0568 µM in experiment [2]; 0.113 µM in experiment [3]; 0.32 µM in experiment [4]; 0.0691 µM in experiment [5]; 0.0521 µM in experiment [7]; 0.0275 µM in [8]. The GI50 in experiment [9] is 0.0322 µM; in [10], 0.277 µM; in experiment [11] it was 0.0122 µM. Also, the concentration for total growth inhibition (TGI) in [2] stood at 0.72 µM; in experiment [3], 0.618 µM; in experiment [4], 1.97 µM; in experiment [5] it was 0.271 µM; in experiment [7], 2.98 µM; in [8], 0.126 µM. Moreover, the values for the TGI in experiment [9], in experiment [10] and in experiment [11] were 0.114 µM, 1.76 µM and 0.122 µM, respectively.
As for `Oc1ccc(C(=C(Br)c2ccccc2)c2ccc(O)cc2)cc1`, the total growth inhibition concentration (TGI) in experiment [2] stood at 19.4 µM; in experiment [3], 13.5 µM; in experiment [4], 24 µM; in experiment [5], 3.45 µM; in experiment [7], 22.2 µM; in [8], 27.2 µM. In addition, the concentration for total growth inhibition (TGI) in [9] was 12.5 µM; in experiment [10], 31.8 µM; in experiment [11], 23.1 µM.
On to `C=CCNC(=O)C(C)C1CCC2(C)C=CC(=O)C(C)=C2C1O` (configuration not stated), for which the TGI in experiment [2], in [3], in [6], in experiment [7], in experiment [8] and in experiment [9] was above 100 µM in each case. For the same molecule, the TGI in experiment [11] is above 100 µM.
